Assay [1] deals with T1, Wt-hMLKL (Homo sapiens, UniProt Q8NB16).
T1 construct: purchased Abcam ab241453
T1 sequence (Q8NB16 1-471): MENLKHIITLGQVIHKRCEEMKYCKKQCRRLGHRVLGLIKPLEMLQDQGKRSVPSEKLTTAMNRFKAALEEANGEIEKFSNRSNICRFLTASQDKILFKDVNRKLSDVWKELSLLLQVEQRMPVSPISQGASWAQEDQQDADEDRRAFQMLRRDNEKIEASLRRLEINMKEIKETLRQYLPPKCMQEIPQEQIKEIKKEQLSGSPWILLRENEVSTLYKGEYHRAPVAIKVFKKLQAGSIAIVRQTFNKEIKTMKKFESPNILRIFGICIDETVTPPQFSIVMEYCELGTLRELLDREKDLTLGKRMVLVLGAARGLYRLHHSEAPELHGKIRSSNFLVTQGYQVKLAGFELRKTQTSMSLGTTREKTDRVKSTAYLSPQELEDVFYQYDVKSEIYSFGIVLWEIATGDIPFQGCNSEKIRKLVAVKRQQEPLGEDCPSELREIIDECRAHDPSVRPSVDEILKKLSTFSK
Description: SPR competition assay of NSA with Ox-APO. In kind it is binding. The following applies: 200 μM NSA, 750 μM Ox-APO. The protocol:
Fig. S4 Competition assay of NSA with Ox-APO by SPR. Wt-hMLKL was immobilized on a CM5 chip and 750 μM Ox-APO was overflowed in the presence or absence of 200 μM NSA.

Assay [2] relates to mouse MLKL. Also on record: method as in PMID 28827318. The following applies: cited from earlier work.

Each structure is given as a SMILES string.

Consider `COc1nccnc1NS(=O)(=O)c1ccc(NC(=O)/C=C/c2ccc([N+](=O)[O-])s2)cc1` [NSA, Necrosulfonamide], for which the “competition for binding to hMLKL” value in assay [1] is “competed with Ox-APO”. The “activity against mouse MLKL” value in assay [2] is on record as “ineffective”.

The values above are taken from paper PMC12518639, “Apomorphine is a novel necroptosis inhibitor targeting mixed lineage kinase domain-like protein oligomerization” (Cell Death Discovery, 2025).
